Results taken from US20130237530A1, “BENZODIAZEPINE DERIVATIVES, COMPOSITIONS AND METHODS FOR TREATING COGNITIVE IMPAIRMENT” (priority 2010, published 2013).
“Also recorded” adds a separate entry of the source. Where two headings read alike, the source gives them in different places.

Key:
aged-impaired (AI) rats [1] = assay: Radial Arm Maze (RAM) behavioral task, spatial memory retention; format: in vivo, rat
Experimental: The effects of methyl 3,5-diphenylpyridazine-4-carboxylate on the in vivo spatial memory retention of aged-impaired (AI) rats were assessed in a Radial Arm Maze (RAM) behavioral task using vehicle control and four different dosage levels of methyl 3,5-diphenylpyridazine-4-carboxylate ([…]). RAM behavioral tasks were performed on eight AI rats. All five treatment conditions (vehicle and four dosage levels) were tested on all eight rats.
The RAM apparatus used consisted of eight equidistantly-spaced arms. An elevated maze arm (7 cm width×75 cm length) projected from each facet of an octagonal center platform (30 cm diameter, 51.5 cm height). Clear side walls on the arms were 10 cm high and were angled at 65° to form a trough. A food well (4 cm diameter, 2 cm deep) was located at the distal end of each arm. Froot Loops™ (Kellogg Company) were used as rewards. Blocks constructed of Plexiglas™ (30 cm height×12 cm width) could be positioned to prevent entry to any arm. Numerous extra maze cues surrounding the apparatus were also provided.
The AI rats were initially subjected to a pre-training test (Chappell et al. Neuropharmacology 37: 481-487, 1998). The pre-training test consisted of a habituation phase (4 days), a training phase on the standard win-shift task (18 days) and another training phase (14 days) in which a brief delay was imposed between presentation of a subset of arms designated by the experimenter (e.g., 5 arms available and 3 arms blocked) and completion of the eight-arm win-shift task (i.e., with all eight arms available).
In the habituation phase, rats were familiarized to the maze for an 8-minute session on four consecutive days. In each of these sessions, food rewards were scattered on the RAM, initially on the center platform and arms and then progressively confined to the arms. After this habituation phase, a standard training protocol was used, in which a food pellet was located at the end of each arm. Rats received one trial each day for 18 days. Each daily trial terminated when all eight food pellets had been obtained or when either 16 choices were made or 15 minutes had elapsed. After completion of this training phase, a second training phase was carried out in which the memory demand was increased by imposing a brief delay during the trial. At the beginning of each trial, three arms of the eight-arm maze were blocked. Rats were allowed to obtain food on the five arms to which access was permitted during this initial “information phase” of the trial. Rats were then removed from the maze for 60 seconds, during which time the barriers on the maze were removed, thus allowing access to all eight arms. Rats were then placed back onto the center platform and allowed to obtain the remaining food rewards during this “retention test” phase of the trial. […]

GABAA α5 receptor [2] = biological target: T1, GABAA α5 receptor (Rattus norvegicus, UniProt P18508+P19969); assay: in vivo; format: in vivo, Long Evans rats; details: for effect on Ro 15-4513 binding in hippocampus: 0.01-10 mg/kg; for dose dependence of GABAA α5 receptor occupancy: administered intravenously
T1 construct: from tissue; host or cells: rat brain in vivo; hippocampus compared with cerebellum
T1 sequence (P19969 32-464 limits assumed): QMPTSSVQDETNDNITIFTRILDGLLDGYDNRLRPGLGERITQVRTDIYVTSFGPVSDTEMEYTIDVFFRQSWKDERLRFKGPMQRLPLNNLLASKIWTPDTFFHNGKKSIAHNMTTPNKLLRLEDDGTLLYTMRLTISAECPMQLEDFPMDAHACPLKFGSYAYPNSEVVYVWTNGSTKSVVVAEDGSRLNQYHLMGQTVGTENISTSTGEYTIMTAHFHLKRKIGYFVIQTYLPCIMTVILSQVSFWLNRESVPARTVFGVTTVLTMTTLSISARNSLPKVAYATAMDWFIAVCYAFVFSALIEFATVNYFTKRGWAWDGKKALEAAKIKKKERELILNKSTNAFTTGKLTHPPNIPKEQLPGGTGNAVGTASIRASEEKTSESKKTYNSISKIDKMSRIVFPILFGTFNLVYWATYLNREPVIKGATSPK
T1 sequence (P18508 39-466): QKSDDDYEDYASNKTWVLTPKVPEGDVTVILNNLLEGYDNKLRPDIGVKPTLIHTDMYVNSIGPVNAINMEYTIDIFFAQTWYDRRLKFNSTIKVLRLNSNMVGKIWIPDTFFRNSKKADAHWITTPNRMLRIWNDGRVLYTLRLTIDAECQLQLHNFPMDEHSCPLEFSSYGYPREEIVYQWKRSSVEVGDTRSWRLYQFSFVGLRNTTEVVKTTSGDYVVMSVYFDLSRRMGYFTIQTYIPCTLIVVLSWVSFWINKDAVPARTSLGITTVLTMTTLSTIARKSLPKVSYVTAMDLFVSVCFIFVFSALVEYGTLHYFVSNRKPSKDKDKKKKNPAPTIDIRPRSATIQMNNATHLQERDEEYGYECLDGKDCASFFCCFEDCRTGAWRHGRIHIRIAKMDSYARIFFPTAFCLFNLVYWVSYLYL
Description: (§1) Food and water were available ad libitum.

GABAA α5 receptor [3] = assay: in vivo; format: in vivo, Long Evans rats; details: i.v.; for effect on Ro 15-4513 binding/levels in cerebellum: 0.01-10 mg/kg
Description: as §1

aged-impaired (AI) rats [4] = assay: Morris water maze behavioral task, ICV infusion; format: in vivo, rat; details: 100 μg ICV
Experimental: The effects of 6,6 dimethyl-3-(3-hydroxypropyl)thio-1-(thiazol-2-yl)-6,7-dihydro-2-benzothiophen-4(5H)-one on the in vivo spatial memory retention of aged-impaired (AI) rats were assessed in a Morris water maze behavioral task. A water maze is a pool surrounded with a novel set of patterns relative to the maze.
Cognitively impaired aged rats were implanted unilaterally with a cannula into the lateral ventricle. Stereotaxic coordinates were 1.0 mm posterior to bregma, 1.5 mm lateral to midline, and 3.5 mm ventral to the skull surface. After about a week of recovery, the rats were pre-trained in a water maze for 2 days (6 trials per day) to locate a submerged escape platform hidden underneath the surface of the pool, in which the escape platform location varied from day to day. No intracerebroventricular (ICV) infusion was given during pre-training
After pre-training, rats received ICV infusion of either 100 μg 6,6 dimethyl-3-(3-hydroxypropyl)thio-1-(thiazol-2-yl)-6,7-dihydro-2-benzothiophen-4(5H)-one (n=6) in 5 μl DMSO or vehicle DMSO (n=5) 40 min prior to water maze training and testing. Training consisted of 8 trials per day for 2 days where the hidden escape platform remained in the same location. Rats were given 60 seconds to locate the platform with a 60 seconds inter-trial interval. The rats were given a probe test (120 seconds) 24 hr after the end of training where the escape platform was removed. During the training, there were 4 blocks, where each block had 4 training trials.
During a test trial 24 hr after training, the escape platform was removed. The search/swim pattern of the rats was used to measure whether the rats remember where the escape platform was located during pre-trial training in order to test for the long-term memory of the rats. In this trial, “target annulus” is a designated area 1.5 times the size of the escape platform around the area where the platform was located during pre-trial training “Opposite annulus” is a control area of the same size as the size of the target annulus, which is located opposite to the target annulus in the pool. If the rats had good long term memory, they would tend to search in the area surrounding the location where the platform was during the pre-trial training (i.e., the “target” annulus; and not the “opposite” annulus). “Time in annulus” is the amount of time in seconds that the rat spent in the target or opposite annulus area. “Number (#) of crossings” in annulus is the number of times the rat swam across the target or opposite annulus area.

GABAA receptors (α5β3γ2) = biological target: T2, GABAA receptors (α5β3γ2) (Homo sapiens, UniProt P18507+P28472+P31644); assay: Potentiation of GABA EC50 current, two-electrode voltage clamp (TEVC) in Xenopus oocytes expressing GABAA α5β3γ2; format: cell-based; details: read-out: GABA α5 EC50 % potentiation
T2 construct: myc-His (from vector pcDNA3.1 myc-His); expressed in transfected cells; host or cells: Xenopus laevis oocytes injected with cDNAs in pcDNA3.1 / pcDNA3.1 myc-His
T2 sequence (P31644 32-462): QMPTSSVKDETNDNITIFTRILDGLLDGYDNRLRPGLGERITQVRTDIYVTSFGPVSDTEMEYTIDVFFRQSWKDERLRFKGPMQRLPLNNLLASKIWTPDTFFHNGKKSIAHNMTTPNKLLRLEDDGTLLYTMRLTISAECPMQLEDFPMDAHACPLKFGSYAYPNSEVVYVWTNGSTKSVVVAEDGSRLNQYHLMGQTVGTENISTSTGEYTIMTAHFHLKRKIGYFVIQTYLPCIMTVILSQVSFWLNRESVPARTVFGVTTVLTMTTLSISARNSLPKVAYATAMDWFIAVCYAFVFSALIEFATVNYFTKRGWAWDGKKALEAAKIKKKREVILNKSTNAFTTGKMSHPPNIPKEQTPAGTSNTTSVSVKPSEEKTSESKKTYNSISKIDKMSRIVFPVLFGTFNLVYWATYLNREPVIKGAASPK
T2 sequence (P28472 26-473): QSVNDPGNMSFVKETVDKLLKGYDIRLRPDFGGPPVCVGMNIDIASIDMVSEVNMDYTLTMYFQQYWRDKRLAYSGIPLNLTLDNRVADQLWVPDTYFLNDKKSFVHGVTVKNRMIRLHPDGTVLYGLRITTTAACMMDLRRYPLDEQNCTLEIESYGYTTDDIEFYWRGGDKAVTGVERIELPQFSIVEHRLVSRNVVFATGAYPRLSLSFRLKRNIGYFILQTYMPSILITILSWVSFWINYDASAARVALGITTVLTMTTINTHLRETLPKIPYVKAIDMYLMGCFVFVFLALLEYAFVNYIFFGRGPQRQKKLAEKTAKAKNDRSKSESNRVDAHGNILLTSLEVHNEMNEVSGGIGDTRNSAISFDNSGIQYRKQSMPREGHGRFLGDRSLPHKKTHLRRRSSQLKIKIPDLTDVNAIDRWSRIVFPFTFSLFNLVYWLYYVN
T2 sequence (P18507 40-475): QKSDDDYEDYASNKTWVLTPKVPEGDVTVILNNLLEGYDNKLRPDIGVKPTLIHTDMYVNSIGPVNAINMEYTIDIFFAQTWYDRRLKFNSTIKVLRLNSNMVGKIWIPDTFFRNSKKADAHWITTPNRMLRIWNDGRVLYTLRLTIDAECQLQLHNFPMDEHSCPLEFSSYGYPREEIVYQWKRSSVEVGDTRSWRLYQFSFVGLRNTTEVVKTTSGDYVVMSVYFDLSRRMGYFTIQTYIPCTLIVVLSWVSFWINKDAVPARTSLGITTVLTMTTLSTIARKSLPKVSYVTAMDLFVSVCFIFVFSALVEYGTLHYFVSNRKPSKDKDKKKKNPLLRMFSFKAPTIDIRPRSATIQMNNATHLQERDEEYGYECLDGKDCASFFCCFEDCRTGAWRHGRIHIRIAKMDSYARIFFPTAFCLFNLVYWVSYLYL
Experimental: The agonist activity of the compounds of this invention was determined by measuring their effect on GABA-gated Cl— current from Xenopus oocytes expressing GABAA α5β3γ2 subtype receptor in a two-electrode voltage clamp (TEVC) setup.
In this study, the GABA-gated Cl^− current from oocytes expressing GABAAR α5β3γ2 subtype was measured in the TEVC setup in the presence of the test compounds. […] Upon conclusion of compound testing and successful washout, a 1.0 μM diazepam was tested and used for comparative activity on the two GABAAR subtypes.
Other concentrations of the test compound may also be tested following the same protocol.
Results are expressed as mean±SEM.

in vivo [5] = format: in vivo, Long Evans rats; details: for concentration at 35 min: male, young Long Evans rats
Experimental: as §1
For plasma exposures, blood samples were centrifuged at 14000 rpm for 16 minutes. After centrifuging, 50 ul of supernatant (plasma) from each sample was added to 200 μl of acetonitrile plus 0.1% formic acid. […] Samples were sonicated for 5 minutes in an ultrasonic water bath, followed by centrifugation for 30 minutes, at 16000 RPM. 100 ul of supernatant was removed from each sample vial and placed in a new glass auto sample vial, followed by the addition of 300 μl of sterile water (pH 6.5).
Additional studies were conducted in aged Long-Evans rats in order to determine the exposures at the behaviorally relevant doses in the cognition studies. Exposure in young Long-Evans rats was also determined to bridge with the receptor occupancy studies that were conducted in young Long-Evans rats. Exposures in young and aged Long-Evans rats were relatively similar (Table 3, FIG. 4).

α5-containing GABAA R = α5-containing GABAA R (Homo sapiens, UniProt P18507+P31644); details: (EC20); van Niel et al. J. Med. Chem. 2005; cited from earlier work
Sequence of α5-containing GABAA R (P31644 32-462): as the sequence (P31644 32-462) above
Sequence of α5-containing GABAA R (P28472 26-473 partner): as the sequence (P28472 26-473) above
Sequence of α5-containing GABAA R (P18507 40-475): as the sequence (P18507 40-475) above

in vivo [6] = format: in vivo, Long Evans rats; details: male, Long Evans, rat, iv, tracer 1 μg/kg, i.v., after vehicle administration
Description: as §1

[7] = probe test 24 hr after training
[8] = dose increase from 1 to 10 mg/kg, i.v.

CCOC(=O)c1ncn2c1Cn1c(C)nnc1-c1cc(OC)ccc1-2 [ethyl 3-methoxy-7-methyl-9H-benzo[f]imidazo[1,5-a][1,2,4]triazolo[4,3-d][1,4]diazepine-10-carboxylate]
memory performance relative to vehicle control (aged-impaired (AI) rats [1]; 3 mg/kg, four-hour delay RAM, t(7)=4.13, p=0.004, or t(7)=3.08, p=0.018): significantly improved memory performance
memory performance relative to vehicle control (aged-impaired (AI) rats [1]; 10 mg/kg, four-hour delay RAM, t(7)=2.82, p=0.026): significantly improved memory performance
effect on Ro 15-4513 binding in hippocampus (GABAA α5 receptor [2]; i.v.): blocked the binding of Ro154513 in the hippocampus; also recorded: reduced Ro 15-4513 binding in hippocampus
GABAA α5 receptor occupancy (GABAA α5 receptor [2]; 10 mg/kg, i.v.): > 90%
dose dependence of GABAA α5 receptor occupancy (GABAA α5 receptor [2]): dose-dependent
effect on Ro 15-4513 binding/levels in cerebellum (GABAA α5 receptor [3]): did not affect binding of Ro15413 in the cerebellum; also recorded: without affecting cerebellum levels of Ro 15-4513

CC1(C)CC(=O)c2c(SCCCO)sc(-c3nccs3)c2C1 [6,6 dimethyl-3-(3-hydroxypropyl)thio-1-(thiazol-2-yl)-6,7-dihydro-2-benzothiophen-4(5H)-one]
learning of the water maze task (aged-impaired (AI) rats [4]): improved the learning of the water maze task
long-term memory in the water maze task (aged-impaired (AI) rats [4]): improved the long-term memory
time to find the escape platform (escape latency) (aged-impaired (AI) rats [4]; beginning of training (block 1)): about 24 seconds
time to find the escape platform (escape latency) (aged-impaired (AI) rats [4]; end of training (block 4)): about 9.6 seconds
number of crossings of target annulus vs opposite annulus (aged-impaired (AI) rats [4]; [7]): crossed the “target annulus” more often
time in target annulus vs opposite annulus (aged-impaired (AI) rats [4]; [7]): spent significantly more time in the target annulus

CCOC(=O)c1ncn2c1Cn1nnc(C)c1-c1cc(Cl)ccc1-2 [Compound 9]
activation at 1 µM (GABAA receptors (α5β3γ2)): 8.3%

COC(=O)c1c(-c2ccccc2)cnnc1-c1ccccc1 [methyl 3,5-diphenylpyridazine-4-carboxylate]
average no. of errors ± SEM in retention test (aged-impaired (AI) rats [1]; 3 mg/kg i.p., two-hour delay RAM, AI rats): 1.31±0.40
memory performance relative to vehicle control (aged-impaired (AI) rats [1]; 3 mg/kg i.p., two-hour delay RAM, t(7)=4.233, p=0.004): significantly improved memory performance
effect on Ro 15-4513 binding in hippocampus (GABAA α5 receptor [2]; i.v.): blocked the binding of Ro154513 in the hippocampus; also recorded: dose-dependently reduced Ro 15-4513 binding in hippocampus
dose dependence of GABAA α5 receptor occupancy (GABAA α5 receptor [2]): dose-dependent increase
effect on Ro 15-4513 binding/levels in cerebellum (GABAA α5 receptor [3]): did not affect binding of Ro15413 in the cerebellum; also recorded: without affecting cerebellum levels of Ro 15-4513
Kp (in vivo [5]; Long Evans, rat, in vivo, read-out: brain/plasma ratios): > 1
increase in hippocampal exposure (in vivo [5]; dose increase from 0.1 to 1 mg/kg, i.v.): 12 fold
increase in hippocampal exposure (in vivo [5]; [8]): ~5 fold
increase in plasma exposure (in vivo [5]; [8]): 12 fold
concentration at 35 min (in vivo [5]; Long Evans, rat, in vivo, 0.1 mg/kg, i.v., read-out: Hippocampus exposure (SEM)): 14.6 ng/g
concentration at 35 min (in vivo [5]; Long Evans, rat, in vivo, 1 mg/kg, i.v., read-out: Hippocampus exposure (SEM)): 180 ng/g
concentration at 35 min (in vivo [5]; Long Evans, rat, in vivo, 1 mg/kg, i.v., read-out: Plasma exposure (SEM)): 0.0628 µg/mL
concentration at 35 min (in vivo [5]; Long Evans, rat, in vivo, 10 mg/kg, i.v., read-out: Hippocampus exposure (SEM)): 947 ng/g
concentration at 35 min (in vivo [5]; Long Evans, rat, in vivo, 10 mg/kg, i.v., read-out: Plasma exposure (SEM)): 0.764 µg/mL
α5 in vitro efficacy (α5-containing GABAA R): +27

CCOC(=O)c1ncn2c1CN(C)C(=O)c1cc(N=[N+]=[N-])ccc1-2 [Ro 15-4513]
concentration at 20 min (in vivo [6]; cerebellum, read-out: levels of Ro 15-4513 in cerebellum): 0.36 ± 0.02 ng/g
concentration at 20 min (in vivo [6]; hippocampus, read-out: levels of Ro 15-4513 in hippocampus): 1.93 ± 0.05 ng/g
higher levels in hippocampus compared with cerebellum (GABAA α5 receptor [3]; tracer 1 μg/kg, after vehicle administration): > 5 fold

CCc1nnn2c1-c1cc(OC)ccc1-n1cnc(C(=O)N(CC)CC)c1C2 [Compound 7]
activation at 1 µM (GABAA receptors (α5β3γ2)): 11.1%

CCN(CC)C(=O)c1ncn2c1Cn1nnc(C)c1-c1cc(OC)ccc1-2 [Compound 2]
activation at 10 µM (GABAA receptors (α5β3γ2)): 6.2%
